# Measured values as given in ChEMBL document CHEMBL3352029, “Ring fusion strategy for the synthesis of anthra[2,3-d]oxazole-2-thione-5,10-dione homologues as DNA topoisomerase inhibitors and as antitumor agents” (Eur J Med Chem, 2014).
# pIC50: −log10 of the molar value. Calls of active or inactive are those of the source. No cut-off for these calls is given here.
# Key:
# [1] = Cytotoxicity against human PC3 cells assessed as inhibition of cell growth after 48 hrs by sulforhodamine B assay; assay type: functional, cell-based; details: PC-3, 48 h
# [2] = molecular target: T1, DNA topoisomerase 1 (Homo sapiens) (UniProt P11387); assay: Inhibition of human recombinant DNA topoisomerase 1 assessed as reduction in relaxation of supercoiled pHOT DNA at 25 to 50 uM incubated for 45 mins by ethidium bromide staining based gel electrophoresis
# T1 sequence (whole entry): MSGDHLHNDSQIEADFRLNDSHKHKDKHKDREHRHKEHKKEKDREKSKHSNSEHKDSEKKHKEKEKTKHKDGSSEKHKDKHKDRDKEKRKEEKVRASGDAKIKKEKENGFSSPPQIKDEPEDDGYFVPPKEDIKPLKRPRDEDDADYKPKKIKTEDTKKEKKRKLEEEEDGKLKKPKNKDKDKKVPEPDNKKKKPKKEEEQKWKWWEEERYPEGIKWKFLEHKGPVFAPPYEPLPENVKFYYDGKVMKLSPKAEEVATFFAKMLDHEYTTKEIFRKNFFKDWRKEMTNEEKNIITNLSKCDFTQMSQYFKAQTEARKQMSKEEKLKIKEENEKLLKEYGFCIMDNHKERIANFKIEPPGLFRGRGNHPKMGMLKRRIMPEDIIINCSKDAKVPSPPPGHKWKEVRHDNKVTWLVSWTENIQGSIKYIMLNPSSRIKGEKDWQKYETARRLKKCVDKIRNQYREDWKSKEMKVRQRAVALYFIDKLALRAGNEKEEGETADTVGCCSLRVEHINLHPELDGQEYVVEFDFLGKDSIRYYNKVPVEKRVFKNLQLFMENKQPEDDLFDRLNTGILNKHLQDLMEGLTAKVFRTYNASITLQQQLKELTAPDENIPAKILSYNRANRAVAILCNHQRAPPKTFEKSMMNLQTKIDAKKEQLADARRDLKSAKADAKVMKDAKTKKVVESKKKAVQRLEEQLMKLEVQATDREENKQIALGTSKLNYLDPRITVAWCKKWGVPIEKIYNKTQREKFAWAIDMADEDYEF
# [3] = molecular target: T1, DNA topoisomerase 1 (Homo sapiens); assay: Inhibition of human recombinant DNA topoisomerase 1 assessed as reduction in relaxation of supercoiled pHOT DNA at 6.25 to 25 uM incubated for 45 mins by ethidium bromide staining based gel electrophoresis
# [4] = tested on: A549; assay: Cytotoxicity against human A549/ATCC cells assessed as cell growth level at 10 uM after 48 hrs by sulforhodamine B assay; assay type: functional
# [5] = tested on: NCI-H322M; assay: Cytotoxicity against human NCI-H322M cells assessed as cell growth level at 10 uM after 48 hrs by sulforhodamine B assay; assay type: functional
# [6] = Cytotoxicity against human HCT15 cells assessed as cell growth level at 10 uM after 48 hrs by sulforhodamine B assay; assay type: functional, HCT-15
# [7] = tested on: HT-29; assay: Cytotoxicity against human HT-29 cells assessed as cell growth level at 10 uM after 48 hrs by sulforhodamine B assay; assay type: functional
# [8] = tested on: SF-539; assay: Cytotoxicity against human SF539 cells assessed as cell growth level at 10 uM after 48 hrs by sulforhodamine B assay; assay type: functional
# [9] = tested on: SNB-19; assay: Cytotoxicity against human SNB19 cells assessed as cell growth level at 10 uM after 48 hrs by sulforhodamine B assay; assay type: functional
# [10] = tested on: IGROV-1; assay: Cytotoxicity against human IGROV1 cells assessed as cell growth level at 10 uM after 48 hrs by sulforhodamine B assay; assay type: functional
# [11] = Cytotoxicity against human NCI-ADR-RES cells assessed as cell growth level at 10 uM after 48 hrs by sulforhodamine B assay; assay type: functional
# [12] = Cytotoxicity against human SKOV3 cells assessed as cell growth level at 10 uM after 48 hrs by sulforhodamine B assay; assay type: functional, SK-OV-3
# [13] = tested on: A498; assay: Cytotoxicity against human A498 cells assessed as cell growth level at 10 uM after 48 hrs by sulforhodamine B assay; assay type: functional
# [14] = tested on: DU-145; assay: Cytotoxicity against human DU145 cells assessed as cell growth level at 10 uM after 48 hrs by sulforhodamine B assay; assay type: functional
# [15] = tested on: MDA-MB-231; assay: Cytotoxicity against human MDA-MB-231 cells assessed as cell growth level at 10 uM after 48 hrs by sulforhodamine B assay; assay type: functional
SMILES,pIC50 [1],inhibition [2],inhibition [3],Activity [4] [%],Activity [5] [%],Activity [6] [%],Activity [7] [%],Activity [8] [%],Activity [9] [%],Activity [10] [%],Activity [11] [%],Activity [12] [%],Activity [13] [%],Activity [14] [%],Activity [15] [%]
CN(C)CCCSc1nc2cc3c(cc2o1)C(=O)c1ccccc1C3=O,4.80,Active,Dose-dependent effect,54.13,85.16,68.98,64.03,87.3,90.07,71.71,90.68,77.71,72.09,53.81,71.49
O=C1c2ccccc2C(=O)c2cc3oc(SCc4ccc(F)cc4)nc3cc21,< 4.52,–,–,83.66,85.42,94.53,91.18,94.71,104.56,87.04,91.27,86.24,94.5,103.51,103.32
CCSc1nc2cc3c(cc2o1)C(=O)c1ccccc1C3=O,< 4.52,–,–,96.49,77.88,96.65,89.08,94.61,99.9,79.05,95.82,90.67,80.69,107.71,90.66
